Assay results: patent publication US20050209278A1, “Piperidinyl- and piperazinyl-sulfonylmethyl hydroxamic acids and their use as protease inhibitors” (priority 2002, published 2005)
“And” between values parts separate entries of the source, which are not always exact repeats. Equal entries are not always repeated.

Legend:
MMP-2 = biological target: T1, MMP-2 (Homo sapiens, UniProt P08253); experiment: In vitro MMP inhibition, Ki determination (fluorogenic substrate II); assay type: biochemical; details: value outside parentheses; read-out: MMP-2 Ki
T1 construct: made in house; host or cells: MMP-2-transfected p2AHT2 cells
T1 sequence (P08253 110-660): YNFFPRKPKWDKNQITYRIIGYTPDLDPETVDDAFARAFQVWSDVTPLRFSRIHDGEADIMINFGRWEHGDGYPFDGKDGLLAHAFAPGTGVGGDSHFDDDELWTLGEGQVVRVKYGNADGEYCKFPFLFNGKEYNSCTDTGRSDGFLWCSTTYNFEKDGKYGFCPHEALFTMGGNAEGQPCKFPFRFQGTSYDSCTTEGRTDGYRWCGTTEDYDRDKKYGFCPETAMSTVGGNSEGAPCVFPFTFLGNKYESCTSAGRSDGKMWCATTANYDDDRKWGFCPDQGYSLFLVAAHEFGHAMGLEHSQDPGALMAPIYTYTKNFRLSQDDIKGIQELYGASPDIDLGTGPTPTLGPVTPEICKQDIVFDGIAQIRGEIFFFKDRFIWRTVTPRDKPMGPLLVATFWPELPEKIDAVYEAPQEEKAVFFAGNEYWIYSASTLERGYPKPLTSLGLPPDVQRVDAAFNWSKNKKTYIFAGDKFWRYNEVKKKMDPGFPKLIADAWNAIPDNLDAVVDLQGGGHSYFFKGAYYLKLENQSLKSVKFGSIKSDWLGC

MMP-14 = biological target: T2, MMP-14 (Homo sapiens, UniProt P50281); experiment: as above; assay type: biochemical; details: value outside parentheses; read-out: MMP-14 Ki
T2 construct: The catalytic domain enzyme was expressed in E. coli inclusion bodies, solubilized in urea; made in house
How it was run: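 E. coli-expressed, refolded MMP-14 catalytic domain, activated with APMA or trypsin, in 100 mM Tris-HCl pH 7.5, 100 mM NaCl, 10 mM CaCl2, 0.05% Brij-type detergent. Apparent Ki by Morrison-equation regression of velocity vs inhibitor and enzyme concentration.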

Q: Which Ki (MMP-2) does the source give for `O=C(NO)C1(S(=O)(=O)N2CCN(c3ccc(Br)cn3)CC2)CCOCC1` [Example 331] here?
A: The Ki was 0.103 nM.

Q: What about the Ki (MMP-14) of the same compound?
A: The Ki was 13.5 nM.

Q: How did the Ki (MMP-2) turn out when `O=C(NO)C1(S(=O)(=O)N2CCN(c3ccc(CCCC(F)(F)F)c(F)c3)CC2)CCOCC1` [Example 389] was run?
A: Its Ki is 0.38 nM.

Q: And the Ki (MMP-14)?
A: The Ki was 3170 nM.

Q: Which Ki (MMP-2) does the source give for `O=C(NO)C1(S(=O)(=O)N2CCN(c3ncc(-c4ccc(O)cc4)s3)CC2)CCOCC1` [Example 368] here?
A: The Ki was 0.225 nM.

Q: What about the Ki (MMP-14) of the same compound?
A: The Ki was 180 nM.

Q: Which Ki (MMP-2) does the source give for `Cc1cccc(-c2cnc(N3CCN(S(=O)(=O)C4(C(=O)NO)CCOCC4)CC3)s2)c1` [Example 370] here?
A: The Ki was 1.34 nM.

Q: And the Ki (MMP-14)?
A: Its Ki is 341 nM.

Q: `Cc1ccccc1-c1cnc(N2CCN(S(=O)(=O)C3(C(=O)NO)CCOCC3)CC2)s1` [Example 348] was tested. Which Ki (MMP-2) did it give?
A: Its Ki is 4.61 nM.

Q: And the Ki (MMP-14)?
A: Its Ki is 650 nM.

Q: How did the Ki (MMP-2) turn out when `O=C(NO)C1(S(=O)(=O)N2CCN(c3ncc(/C=C/c4ccccc4)s3)CC2)CCOCC1` [Example 361] was run?
A: Its Ki is 1.37 nM and 1.39 nM.

Q: What about the Ki (MMP-14) of the same compound?
A: The Ki was 497 nM and 460 nM.

Q: `O=C(NO)C1(S(=O)(=O)N2CCC(c3ccc(CCCC(F)(F)F)cc3)CC2)CCN(C2CC2)CC1` [Example 351] was tested. Which Ki (MMP-2) did it give?
A: The Ki was 1.26 nM.

Q: And the Ki (MMP-14)?
A: Its Ki is 4740 nM.

Q: With `O=C(NO)C1(S(=O)(=O)N2CCC(N3CCN(c4ccc(Cl)cc4)CC3)CC2)CCOCC1` [Example 315] as the compound, how does the Ki (MMP-2) read?
A: The Ki was 1820 nM.

Q: And the Ki (MMP-14)?
A: The Ki was over 10000 nM.

Q: Which results are given for `O=C(NO)C1(S(=O)(=O)N2CCC(c3ccc(-c4ccccc4)cn3)CC2)CCOCC1` [Example 392]?
A: Ki (MMP-2): 4.02 nM; Ki (MMP-14): 1290 nM

Q: Which results are given for `O=C(NO)C1(S(=O)(=O)N2CCC(COCC(F)(F)C(F)(F)C(F)(F)F)CC2)CCOCC1` [Example 377]?
A: Ki (MMP-2): 37.5 nM; Ki (MMP-14): > 10000 nM

Q: With `O=C(NO)C1(S(=O)(=O)N2CCN(c3ncc(-c4ccccn4)s3)CC2)CCOCC1` [Example 387] as the compound, how does the Ki (MMP-2) read?
A: Its Ki is 6.71 nM.

Q: What about the Ki (MMP-14) of the same compound?
A: Its Ki is 4550 nM.

Q: Which Ki (MMP-2) does the source give for `O=C(NO)C1(S(=O)(=O)N2CCC(COCC(F)(F)C(F)(F)F)CC2)CCOCC1` [Example 376] here?
A: Its Ki is 27.1 nM.

Q: And the Ki (MMP-14)?
A: Its Ki is 3120 nM.

Q: Which results are given for `O=C(NO)C1(S(=O)(=O)N2CCC(COCC(F)(F)C(F)F)CC2)CCOCC1` [Example 375]?
A: Ki (MMP-2): 44.1 nM; Ki (MMP-14): 2860 nM

Q: Which results are given for `CCCCc1ccc(-c2cnc(N3CCN(S(=O)(=O)C4(C(=O)NO)CCOCC4)CC3)s2)cc1` [Example 379]?
A: Ki (MMP-2): 0.14 nM; Ki (MMP-14): 283 nM

Q: With `COC(=O)c1ccc(N2CCN(S(=O)(=O)C3(C(=O)NO)CCOCC3)CC2)cc1` [Example 324] as the compound, how does the Ki (MMP-2) read?
A: The Ki was 1.22 nM.

Q: What about the Ki (MMP-14) of the same compound?
A: The Ki was 1150 nM.

Q: `O=C(NO)C1(S(=O)(=O)N2CCC(c3ccc(CCC(F)(F)F)cn3)CC2)CCOCC1` [Example 367] was tested. Which Ki (MMP-2) did it give?
A: The Ki was 0.978 nM.

Q: And the Ki (MMP-14)?
A: Its Ki is 3290 nM.

Q: Which results are given for `O=C(NO)C1(S(=O)(=O)N2CCN(c3cnn(CCCC(F)(F)F)c(=O)c3)CC2)CCOCC1` [Example 321]?
A: Ki (MMP-2): > 10000 nM; Ki (MMP-14): > 10000 nM

Q: For `O=C(NO)C1(S(=O)(=O)N2CCC(c3ccc(CCCC(F)(F)F)cc3)CC2)CCOCC1` [Example 353], which Ki (MMP-2) is on record?
A: The Ki was 1.29 nM.

Q: And the Ki (MMP-14)?
A: Its Ki is 2710 nM.

Q: For `O=C(NO)C1(S(=O)(=O)N2CCN(c3ccc(OCC(F)(F)C(F)F)cc3)CC2)CCOCC1` [Example 326], which Ki (MMP-2) is on record?
A: The Ki was 0.34 nM.

Q: And the Ki (MMP-14)?
A: Its Ki is 2430 nM.

Q: What does the source list for `O=C(NO)C1(S(=O)(=O)N2CCN(c3ncc(-c4ccc([N+](=O)[O-])cc4)s3)CC2)CCOCC1` [Example 363]?
A: Ki (MMP-2): 0.056 nM; Ki (MMP-14): 27.8 nM

Q: What does the source list for `CCc1ccc(C2CCN(S(=O)(=O)C3(C(=O)NO)CCN(CCOC)CC3)CC2)s1` [Example 314]?
A: Ki (MMP-2): 9.1 nM; Ki (MMP-14): 1310 nM

Q: For `CCCCOc1ccc(N2CCN(S(=O)(=O)C3(C(=O)NO)CCN(CCOC)CC3)CC2)nc1` [Example 325], which Ki (MMP-2) is on record?
A: Its Ki is 0.18 nM.

Q: And the Ki (MMP-14)?
A: The Ki was 912 nM.

Q: Which Ki (MMP-2) does the source give for `CCCCc1ccc(C2CCN(S(=O)(=O)C3(C(=O)NO)CCOCC3)CC2)nc1` [Example 323] here?
A: The Ki was 0.5 nM.

Q: And the Ki (MMP-14)?
A: The Ki was 1290 nM.

Q: `O=C(NO)C1(S(=O)(=O)N2CCN(c3ncc(-c4ccc(OC(F)(F)F)cc4)s3)CC2)CCOCC1` [Example 364] was tested. Which Ki (MMP-2) did it give?
A: Its Ki is 0.187 nM.

Q: What about the Ki (MMP-14) of the same compound?
A: The Ki was 69.7 nM.
